As a reminder, the Ki is the equilibrium dissociation constant of an inhibitor or competing ligand from its target.

For one compound, Kb and Ki results are on record in patent US5087561A, “Humoral hypercalcemic factor antagonists modified at position 13 by biotin” (Merck & Co., Inc., priority 1990, dated 1992).

The target of assay [1] is T1, PTH receptors (bovine renal cortical plasma membranes) (Bos taurus, UniProt Q1LZF7).
T1 construct: from tissue; host or cells: bovine renal cortex plasma membranes
T1 sequence (Q1LZF7 29-589): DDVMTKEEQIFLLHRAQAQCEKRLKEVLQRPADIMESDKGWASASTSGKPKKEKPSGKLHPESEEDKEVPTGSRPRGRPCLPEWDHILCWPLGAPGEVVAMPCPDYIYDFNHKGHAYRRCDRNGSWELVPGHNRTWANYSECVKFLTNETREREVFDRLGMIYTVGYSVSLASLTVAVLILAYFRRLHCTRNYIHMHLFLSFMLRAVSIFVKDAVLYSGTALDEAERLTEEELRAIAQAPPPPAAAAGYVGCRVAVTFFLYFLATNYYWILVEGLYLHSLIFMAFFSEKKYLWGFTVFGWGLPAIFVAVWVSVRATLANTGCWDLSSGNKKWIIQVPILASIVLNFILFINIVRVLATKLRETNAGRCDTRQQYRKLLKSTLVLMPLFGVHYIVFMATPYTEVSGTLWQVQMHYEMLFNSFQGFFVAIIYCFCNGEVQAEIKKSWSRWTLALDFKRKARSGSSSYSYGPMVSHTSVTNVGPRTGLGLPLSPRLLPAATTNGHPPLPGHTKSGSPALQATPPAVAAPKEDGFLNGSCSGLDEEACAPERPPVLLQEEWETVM
In words: Bovine renal membrane binding assay. As to conditions: radioligand [Nle^8, 8, (^125 I)-Tyr^34 ]bPTH (1-34)NH2, 30 min, 21° C. On the procedure: HCF analogues were analysed in a new receptor assay reported in Goldman et al., Endocrin 123: 1468-1475 (1988). The binding assay used [Nle^8, 8, (^125 I)-Tyr^34 ]bPTH (1-34)NH2 which was purified by HPLC (Novapak C18, 32-35% CH3 CN in 0.1% TFA) and was stored as aliquots in 25 mM TrisHCl/1%BSA at -70° C. Bovine renal cortical plasma membranes were incubated with radioligand (25,000 cpm) in a Tris-containing buffer (250 μl) for 30 min at room temperature 21° C. Once equilibrium was reached, bound and free radioligand were separated by centrifugation. High specific binding (85%) to bovine renal cortical membranes was obtained consistently.

Assay [2] relates to adenylate cyclase, human osteosarcoma cell line, B10. In words: Human bone cell (B 10) adenylate cyclase assay. It is filed as cell-based. As to conditions: inhibition of cAMP stimulation by lnM [Nle^8,18, Tyr^34 ] bPTH(1-34) NH2; B10 cells. The protocol:
HCF analogues were analyzed in a human osteosarcoma cell line, B10, for the ability to inhibit cAMP stimulation by lnM [Nle^8,18, Tyr^34 ] bPTH(1-34) NH2 by the method described by R. J. Majeska et al, Endocrinol. 107, 1494 (1980).
Adenylate cyclase assay: Confluent cultures were rinsed in CMFH and scraped into 0.5-1.0 ml buffer (10 mM Tris-HCl, pH 7.8; 1 mM dithiothreitol, 0.2 mM MgCl2; and 0.5 mM EGTA) and homogenized with 10 strokes of a Dounce homogenizer (pestle A). Adenylate cyclase activity was measured by the method of Salomon et al., (18) on samples of either homogenate or membrane pellets obtained by centrifugation of diluted homogenates at 47,000×g for 30 min. The enzyme assay mix contained 0.1-0.3 mM [α-^32 P]ATP, MgCl2, and guanine nucelotides, as specified in the tables and FIGURES, and 1 mM cAMP, 5 mM phosphocreatine, and 100 U/ml creatine phosphokinase. Purified bovine PTH-(1-84), generously provided by Drs. H. Keutmann and M. Rosenblatt, Massachusetts General Hospital, Boston, MA, was dissolved and diluted in 1.5 ml/liter acetic acid containing 1 g/liter bovine serum albumin (Pentex fraction V, Miles Laboratories, Elkhart, IN). L-Isoproterenol bitarate (Sigma Chemical Co., St. Louis, MO) was prepared immediately before use and dissolved and diluted in assay buffer. Control tubes were assayed in the presence of diluent alone.

The target in assay [3] is T2, PTH receptors (human bone cells) (Homo sapiens, UniProt Q03431).
T2 construct: endogenous in cells
T2 sequence (Q03431 27-593): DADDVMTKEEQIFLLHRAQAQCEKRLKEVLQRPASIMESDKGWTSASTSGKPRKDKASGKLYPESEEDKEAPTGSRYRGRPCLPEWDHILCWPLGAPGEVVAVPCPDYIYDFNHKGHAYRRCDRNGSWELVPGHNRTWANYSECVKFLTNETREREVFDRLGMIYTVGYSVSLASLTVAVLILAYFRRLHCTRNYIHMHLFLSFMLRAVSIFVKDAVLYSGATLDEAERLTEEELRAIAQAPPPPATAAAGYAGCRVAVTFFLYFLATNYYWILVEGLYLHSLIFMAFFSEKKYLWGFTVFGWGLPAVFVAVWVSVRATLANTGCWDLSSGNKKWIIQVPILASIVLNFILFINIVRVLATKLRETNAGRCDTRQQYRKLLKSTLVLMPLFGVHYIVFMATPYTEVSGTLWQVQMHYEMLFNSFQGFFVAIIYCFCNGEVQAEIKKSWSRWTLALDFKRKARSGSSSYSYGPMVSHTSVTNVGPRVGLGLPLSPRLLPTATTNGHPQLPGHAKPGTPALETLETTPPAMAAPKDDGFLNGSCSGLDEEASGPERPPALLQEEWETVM
In words: Human bone cell binding assay. As to conditions: confluent monolayers, radioligand [Nle^8,18,(^125 I)-Tyr^34 ]bPTH(1-34)NH2, room temperature, 4 hours. The protocol: HCF analogues were analyzed in a new receptor binding assay as follows. Cells were plated in 24-well dishes in RPMl 1640 medium supplemented with 1% BSA, 20 mM HEPES, pH 7.5, and 0.1% azide. [Nle^8,18,(^125 I)-Tyr^34 ]bPTH(1-34)NH2 (50,000 cpm/well) was added to confluent monolayers in the absence or presence of varying concentrations of analogue under investigation in a final volume of 0.25 ml. Cultures were incubated at room temperature for 4 hours. Reactions were terminated by placing the cultures on ice and washing 4 times with ice cold PBS. Radioactivity associated with the cells was recovered by solubilizing the cells with 1 ml of 1N NaOH.

`CC[C@H](C)[C@H](NC(=O)[C@H](CC(C)C)NC(=O)[C@H](Cc1c[nH]cn1)NC(=O)[C@H](Cc1c[nH]cn1)NC(=O)[C@H](CC(C)C)NC(=O)[C@H](Cc1ccccc1)NC(=O)[C@H](Cc1ccccc1)NC(=O)[C@H](CCCNC(=N)N)NC(=O)[C@H](CCCNC(=N)N)NC(=O)[C@H](CCCNC(=N)N)NC(=O)[C@H](CC(C)C)NC(=O)[C@H](CC(=O)O)NC(=O)[C@H](CCC(N)=O)NC(=O)[C@@H](NC(=O)[C@H](CO)NC(=O)[C@H](CCCCNC(=O)CCNC(=O)CCCC[C@@H]1SC[C@@H]2NC(=O)N[C@@H]21)NC(=O)[C@@H](Cc1c[nH]c2ccccc12)NC(=O)[C@H](CC(C)C)NC(=O)[C@H](CC(=O)O)NC(=O)[C@H](Cc1c[nH]cn1)NC(=O)[C@H](CC(C)C)NC(=O)[C@@H](N)CC(C)C)[C@@H](C)CC)C(=O)N[C@@H](C)C(=O)N[C@@H](CCC(=O)O)C(=O)N[C@H](C(=O)N[C@@H](Cc1c[nH]cn1)C(=O)N[C@H](C(=O)N[C@@H](C)C(N)=O)[C@@H](C)O)[C@@H](C)CC` [[Leu^11,D-Trp^12,Lys^13 (ε-(N-biotinyl β-Ala))]hHCF(7-34)NH2] registered a Kb in assay [1] of 22.6 nM. For the same compound, the Ki came to 7.6 nM in assay [2] and 37.3 nM in assay [3].
